Measurements: patent US20250332173A1, “COMPOUNDS AND METHODS FOR MODULATING NUCLEIC ACID SPLICING” (REMIX THERAPEUTICS INC., priority 2021, published 2025)
Read-outs that look alike come from different tables or passages of the source.

What was measured:
Assay type in all cases: cell-based, human
[1] = test system: HTT mRNA; assay: RT-qPCR splicing assay, HTT canonical junction (CJ) and alternative junction (AJ) mRNA; conditions: Homo sapiens; for AC50: increase in HTT alternative junction (AJ) mRNA, read-out: HTT AJ AC50
Summary of the method: (§1)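 A673 cells (normalized to PPIA) or K562 cells (normalized to GAPDH or GUSB) were treated 24 h at 37 °C with an 11-point 3-fold dilution series, top 10 uM, DMSO ≤0.25%. Cell lysates went to one-step RT-qPCR measuring canonical- and alternative-junction MYB or HTT transcripts.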

[2] = test system: MYB mRNA; assay: RT-qPCR splicing assay, MYB canonical junction (CJ) and alternative junction (AJ) mRNA; conditions: Homo sapiens; for AC50: increase in MYB alternative junction (AJ) mRNA, read-out: MYB AJ AC50
Summary of the method: as §1

[3] = test system: SMN2 mRNA; assay: RT-qPCR splicing assay, SMN2 canonical junction (CJ) mRNA; conditions: Homo sapiens
Summary of the method: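 Read-out is canonical exon-exon junction mRNA quantified by RT-qPCR against a GAPDH, GUSB or PPIA control. Cells (A673 or K562) received compound for 24 h, top final dose 10 uM in an 11-point 3-fold series.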

[4] = decrease in HTT canonical junction (CJ) mRNA, RT-qPCR, read-out: HTT CJ IC50
[5] = canonical junction qPCR panel, Table 5, read-out: HTT (decrease in CJ mRNA levels, IC50)
[6] = canonical junction qPCR panel, Table 5, read-out: MYB (decrease in CJ mRNA levels, IC50)
[7] = decrease in MYB canonical junction (CJ) mRNA, RT-qPCR, read-out: MYB CJ IC50
[8] = canonical junction qPCR panel, Table 5, read-out: SMN2 (decrease in CJ mRNA levels, IC50)
[9] = Table 5 panel, canonical junction qPCR, compound concentration having 50% response in CJ decrease, read-out: HTT IC50 (decrease in CJ mRNA levels)
[10] = Table 5 panel, canonical junction qPCR, compound concentration having 50% response in CJ decrease, read-out: MYB IC50 (decrease in CJ mRNA levels)
[11] = Table 5 panel, canonical junction qPCR, compound concentration having 50% response in CJ decrease, read-out: SMN2 IC50 (decrease in CJ mRNA levels)

Compound | IC50 [1, 4] [nM] | AC50 ([1]; RT-qPCR) [nM] | IC50 [1, 5] [nM] | IC50 [2, 6] [nM] | IC50 [2, 7] [nM] | AC50 ([2]; RT-qPCR) [nM] | IC50 [3, 8] [nM] | IC50 [1, 9] [nM] | IC50 [2, 10] [nM] | IC50 [3, 11] [nM]
Cc1cn2cc(-c3ncc4c(=O)n([C@H]5CCNC6(CC6)C5)ccc4n3)cc(F)c2n1 [Compound 1458, 6-[(7S)-4-azaspiro[2.5]octan-7-yl]-2-(8-fluoro-2-methyl-imidazo[1,2-a]pyridin-6-yl)pyrido[4,3-d]pyrimidin-5-one] | 100 to 1000 | 100 to 1000 | 100 to 1000 | < 100 | 100 to 1000 | < 100 | < 100 | – | – | –
Cc1cn2cc(-c3ccc4c(c3)CCN(C3CCNCC3)C4=O)nc2c(C)n1 [Compound 221, 6-[6,8-dimethylimidazo[1,2-a]pyrazin-2-yl]-2-(piperidin-4-yl)-3,4-dihydroisoquinolin-1-one] | > 10000 | > 10000 | – | – | > 10000 | > 10000 | – | > 10000 | > 10000 | 100 to 1000
Cc1cn2nc(-c3cc(F)c4c(=O)n(C5CCN(C)CC5)cnc4c3)cc(C)c2n1 [Compound 242] | < 100 | < 100 | – | – | < 100 | < 100 | – | < 100 | < 100 | < 100
Cc1cn2nc(-n3cnc4cc(N5CCNCC5)ccc4c3=O)cc(C)c2n1 [Compound 241] | 1000 to 10000 | 1000 to 10000 | – | – | 1000 to 10000 | 1000 to 10000 | – | 1000 to 10000 | 1000 to 10000 | 1000 to 10000
Cc1cn2nc(-c3ccc4c(=O)n([C@H]5CC(C)N[C@@H](C)C5)ncc4n3)cc(C)c2n1 (stereo in doubt) [Compound 1538, 2-(2,8-dimethylimidazo[1,2-b]pyridazin-6-yl)-6-[(2S,6S)-2,6-dimethyl-4-piperidyl]pyrido[2,3-d]pyridazin-5-one] | 100 to 1000 | 100 to 1000 | 100 to 1000 | 100 to 1000 | 100 to 1000 | 100 to 1000 | 100 to 1000 | – | – | –
Cn1cc2cc(-c3ccc4c(c3)CCN(C3CCNCC3)C4=O)cc(F)c2n1 [Compound 225] | > 10000 | > 10000 | – | – | > 10000 | > 10000 | – | > 10000 | > 10000 | > 10000
Cc1cn2nc(-c3ccc4c(=O)n(C5CCN(CCO)C6(CC6)C5)ncc4n3)cc(C)c2n1 (stereo not drawn) [Compound 1541, 2-(2,8-dimethylimidazo[1,2-b]pyridazin-6-yl)-6-[4-(2-hydroxyethyl)-4-azaspiro[2.5]octan-7-yl]pyrido-[2,3-d]pyridazin-5-one] | 100 to 1000 | < 100 | < 100 | 100 to 1000 | 100 to 1000 | 100 to 1000 | < 100 | – | – | –
Cc1cn2cc(-c3ccc4c(c3)CCN(C3CCNCC3)C4=O)c(C)cc2n1 [Compound 218, 6-[2,7-dimethylimidazo[1,2-a]pyridin-6-yl]-2-(piperidin-4-yl)-3,4-dihydroisoquinolin-1-one] | 1000 to 10000 | 1000 to 10000 | – | – | 1000 to 10000 | 1000 to 10000 | – | 1000 to 10000 | 1000 to 10000 | 1000 to 10000
Cc1cn2nc(-c3ccc4c(c3)CCN(C3CCNCC3)C4=O)nc2c(C)n1 [Compound 222, 6-[6,8-dimethyl-[1,2,4]triazolo[1,5-a]pyrazin-2-yl]-2-(piperidin-4-yl)-3,4-dihydroisoquinolin-1-one] | 1000 to 10000 | 1000 to 10000 | – | – | 1000 to 10000 | 1000 to 10000 | – | 1000 to 10000 | 1000 to 10000 | 100 to 1000
O=C1c2ccc(-c3cn[nH]c3)cc2CCN1C1CCNCC1 [Compound 220, 2-(piperidin-4-yl)-6-(1H-pyrazol-4-yl)-3,4-dihydroisoquinolin-1-one] | > 10000 | > 10000 | – | – | > 10000 | > 10000 | – | > 10000 | > 10000 | > 10000
Cc1cn2cc(-c3ccc4c(=O)n(C5CCNC(C)(C)C5)cnc4c3)cc(F)c2n1 (stereo not drawn) [Compound 237] | 100 to 1000 | 100 to 1000 | – | – | 100 to 1000 | 100 to 1000 | – | 100 to 1000 | 100 to 1000 | < 100
Cn1cc2cc(-c3ncc4c(=O)n([C@H]5CCNC5)ccc4n3)c(O)c(F)c2n1 [Compound 1465] | 100 to 1000 | 100 to 1000 | 100 to 1000 | 100 to 1000 | 100 to 1000 | 100 to 1000 | < 100 | – | – | –
Cc1cn2cc(-c3ccc4c(=O)n(C5CCN(C)CC5)cnc4c3)cc(F)c2n1 [Compound 207] | 1000 to 10000 | 1000 to 10000 | – | – | 1000 to 10000 | 1000 to 10000 | – | 1000 to 10000 | 1000 to 10000 | 100 to 1000
Cc1cn2cc(-c3ccc4c(=O)n(C5CCNCC5)cnc4c3)cc(F)c2n1 [Compound 205] | 100 to 1000 | 100 to 1000 | – | – | 100 to 1000 | 100 to 1000 | – | 100 to 1000 | 100 to 1000 | < 100
Cc1cn2cc(-c3ccc4c(=O)n(C5CCN(C)CC5)cnc4c3F)cc(F)c2n1 [Compound 227] | 1000 to 10000 | 1000 to 10000 | – | – | 1000 to 10000 | 1000 to 10000 | – | 1000 to 10000 | 1000 to 10000 | 100 to 1000
Cc1c(O)c(-c2ncc3c(=O)n([C@H]4CCN[C@H](C)C4)ccc3n2)cc2cn(C)nc12 [Compound 1461, 2-(6-hydroxy-2,7-dimethyl-indazol-5-yl)-6-[(2R,4S)-2-methyl-4-piperidyl]pyrido[4,3-d]pyrimidin-5-one] | 100 to 1000 | 100 to 1000 | 100 to 1000 | < 100 | < 100 | < 100 | < 100 | – | – | –
Cc1cc(-c2ccc3c(c2)CCN(C2CCNCC2)C3=O)cc2cn(C)nc12 [Compound 219, 6-(2,7-dimethylindazol-5-yl)-2-(piperidin-4-yl)-3,4-dihydroisoquinolin-1-one] | 1000 to 10000 | 1000 to 10000 | – | – | 100 to 1000 | 100 to 1000 | – | 1000 to 10000 | 100 to 1000 | < 100
Cc1cn2cc(-c3cc(F)c4c(=O)n(C5CCN(C)CC5)cnc4c3)cc(F)c2n1 [Compound 231, 5-fluoro-7-{8-fluoro-2-methylimidazo[1,2-a]pyridin-6-yl}-3-(1-methylpiperidin-4-yl)quinazolin-4-one] | 100 to 1000 | 100 to 1000 | – | – | 100 to 1000 | 100 to 1000 | – | 100 to 1000 | 100 to 1000 | < 100
Cc1cc(-c2ccc3c(=O)n(C4CCNCC4)cnc3c2F)cc2cn(C)nc12 [Compound 234] | 1000 to 10000 | 1000 to 10000 | – | – | 1000 to 10000 | 1000 to 10000 | – | 1000 to 10000 | 1000 to 10000 | < 100
Cc1cn2cc(-c3ccc4c(c3)CCN(C3CCNCC3)C4=O)cc(Cl)c2n1 [Compound 216, 6-[8-chloro-2-methylimidazo[1,2-a]pyridin-6-yl]-2-(piperidin-4-yl)-3,4-dihydroisoquinolin-1-one] | 1000 to 10000 | 1000 to 10000 | – | – | 1000 to 10000 | 100 to 1000 | – | 1000 to 10000 | 100 to 1000 | < 100
Cc1c(O)c(-c2ncc3c(=O)n([C@H]4CC[C@@H](N(C)C)CC4)ccc3n2)cc2cn(C)nc12 [Compound 1460, 6-((1s,4s)-4-(dimethylamino)cyclohexyl)-2-(6-hydroxy-2,7-dimethyl-2H-indazol-5-yl)pyrido[4,3-d]pyrimidin-5(6H)-one] | 1000 to 10000 | 100 to 1000 | 100 to 1000 | 100 to 1000 | 100 to 1000 | 100 to 1000 | < 100 | – | – | –
Cc1cn2nc(-c3ccc4c(c3)CCN(C3CCNCC3)C4=O)cc2c(C)n1 [Compound 223, 6-[4,6-dimethylpyrazolo[1,5-a]pyrazin-2-yl]-2-(piperidin-4-yl)-3,4-dihydroisoquinolin-1-one] | 1000 to 10000 | 1000 to 10000 | – | – | 100 to 1000 | 100 to 1000 | – | 1000 to 10000 | 100 to 1000 | 100 to 1000
Cc1c(O)c(-c2ccc3c(=O)n([C@@H]4C[C@@H](C)N[C@@H](C)C4)ccc3n2)cc2cn(C)nc12 [Compound 1463, 6-[(2S,6R)-2,6-dimethyl-4-piperidyl]-2-(6-hydroxy-2,7-dimethyl-indazol-5-yl)-1,6-naphthyridin-5-one] | 1000 to 10000 | 100 to 1000 | 100 to 1000 | 100 to 1000 | 100 to 1000 | 100 to 1000 | < 100 | – | – | –
Cc1cn2cc(-n3cnc4cc(N5CCNCC5)ccc4c3=O)cc(F)c2n1 [Compound 228] | 100 to 1000 | 100 to 1000 | – | – | 100 to 1000 | 100 to 1000 | – | 100 to 1000 | 100 to 1000 | 100 to 1000
